According to patent US4959378A, “Aminopyridinylaminophenol compounds useful as topical antiinflammatory agents for the treatment of skin disorders” (Hoechst-Roussel Pharmaceuticals Inc., priority 1989, dated 1990):

Assays:
[1] = system: naja naja (snake venom) phospholipase A2 -induced paw edema; assay: Phospholipase A2-induced Paw Edema (PIPE); format: in vivo, rat; settings: for PIPE (0.1 M), difference in edema vs. control: 0.1M test compound injected with PLA2 (3 units/paw) subplantar, rat left hindpaw, two hours post administration
Method: Phospholipase A2 -induced Paw Edema (PIPE)
The ability of compounds to prevent naja naja (snake venom) phospholipase A2 -induced paw edema in male Wistar rates (100-125 g) was measured. PLA2 (3 units/paw) alone or with 0.1M of the test compound was injected in the subplantar region of the rat left hindpaw. Immediately subsequent to the injection and at two hours post administration the paw was immersed in a mercury bath, and paw displacement was measured on a recorder via a transducer. […] See Giessler, A. J. et al., Agents and Actions, Vol. 10, Trends in Inflammation Research (1981), p. 195.

porcine pancreatic PLA2 = target: T1, porcine pancreatic PLA2 (Sus scrofa, UniProt P00592); assay: In Vitro Phospholipase A2 Assay (PLA2); format: biochemical; settings: 0.01 M test compound; porcine pancreatic PLA2 3.2 units, pH 8.0, 37° C.; read-out: PLA2 (0.01 M), difference vs. control
T1 construct: from tissue; host or cells: porcine pancreas
Method: In Vitro Phospholipase A2 Assay (PLA2)
The ability of a compound to modulate PLA2 activity (cleavage of ^14 C-dipalmitoyl phosphotidylcholine at the 2-position to ^14 C-palmitic acid) was quantitated in this assay. The reaction mixture contained Tris buffer (25 mM), pH 8.0, calcium chloride (2.0 mM), bovine serum albumin (0.5 mg), dipalmitoyl phosphotidylcholine (8×10^-5M), (^14 C-palmitoyl)dipalmitoyl phosphotidylcholine (6×10^3cpm), porcine pancreatic PLA2 (3.2 units) and the test compound. The reaction was run at 37° C. in a shaking incubator. The reaction was quenched and an internal standard was added in order to determine sample recovery. The samples were loaded onto C18 columns, eluted with ethanol, and the radioactivity was then measured. […] See Feyen, J. H. M., et al., Journal of Chromatography 259 (1983), pp. 338-340.

T1 sequence (P00592 23-146): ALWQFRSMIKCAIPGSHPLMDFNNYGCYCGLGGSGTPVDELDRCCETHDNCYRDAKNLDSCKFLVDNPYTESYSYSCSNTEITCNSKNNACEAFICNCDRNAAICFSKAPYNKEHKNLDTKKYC

| Compound | ED50 (PIPE standard) ([1]; standard, subplantar injection with PLA2, male Wistar rats) [M] | PIPE (0.1 M), difference in edema vs. control [1] [%] | inhibition at 10000 µM (porcine pancreatic PLA2) [%] |
| --- | --- | --- | --- |
| C[C@]12CCC(=O)C=C1CC[C@@H]1[C@@H]2[C@@H](O)C[C@@]2(C)[C@H]1CC[C@]2(O)C(=O)CO [hydrocortisone, reference compound] | 0.46 | – | – |
| Nc1ccncc1Nc1cccc(O)c1 [3-[(4-Amino-3-pyridinyl)amino]phenol] | – | -52 | 35 |
| Nc1ccncc1Nc1ccc(O)cc1.O=C(O)/C=C\C(=O)O [4-[(4-Amino-3-pyridinyl)amino]phenol maleate] | – | -62 | 35 |
